This note sets out measurements from patent publication US9844546B2, “Antibody against human HIF hydroxylase” (OXFORD UNIVERSITY INNOVATION LIMITED, priority 2001, dated 2017).

The subject of one assay is Hep3B and U2OS cells. The assay can be described thus: Immunoblot of HIF-1α and CA-9 in cells exposed to inhibitor. In kind it is cell-based, human. The settings on record: 0.1 or 1 mM, 6 hours; for HIF-1α level (immunoblot): normoxic culture. The source says: We went on to test a series of 2-oxoglutarate analogues which act as competitive inhibitors of this class of enzyme (29) for ability to inhibit HIF-PH as assessed by the ability of cell extracts to modify either HIF polypeptide (19:WT) or a HIF fusion protein (Gal/HIF-1α549-582/VP16) so as to promote pVHL capture. Concordant results were obtained with both sources of HIF sequence. In one such experiment the effect of N-oxalylglycine on pVHL capture by a biotinylated HIF polypeptides as substrate was monitored. The WT:19 and 19:Pro564Hyp polypeptides described above were used as substrates. […] Inhibition by N-Oxalylglycine was overcome by addition of 5 mM 2-oxoglutarate. As previously, 19:Pro564Hyp captured pVHL efficiently without modification by cell extract, and this was not influenced by exposure to N-oxalylglycine. […] We also used a 2-oxoglutarate dependent dioxygenase, phytanoyl-CoA α-hydroxylase (30), together with a readily available unnatural substrate (isovaleryl CoA) (31) to deplete the cell extract of 2-oxoglutarate produced by the citric acid cycle; as predicted, this prevented the subsequent modification of HIF polypeptide. The effect of dimethyl-oxalyglycine on HIF-1α expression was also studied. HIF-1α immunoblot analysis of extracts of Hep3B and U2OS cells exposed to dimethyl-oxalylgylcine (0, 0.1 or 1.0 mM) for 6 hours was carried out.
Hep3B and U2OS cells were exposed to either 0.1 mM or 1 mM dimethyloxalylglycine for 6 hours, harvested and assayed by immunoblotting (Western blotting) for changes in the level of HIF-1α and CA-9 expression. Controls, where no inhibitor was added, were also performed. […] Upregulation of HIF-1α increased with increasing concentration of dimethyloxalylglycine, whilst the level of CA-9 expression was similar after exposure to both 0.1 and 1 mM of dimethyloxalylglycine.
For orientation: In western blotting, separated proteins are transferred to a membrane and probed.

The test system of assay [1] is angiogenesis in subcutaneous polyurethane sponge. The assay can be described thus: Murine subcutaneous sponge angiogenesis assay. In kind it is in vivo, mouse. The settings on record: 1 mM, 100 microliters injected days 1, 2, 4, 5; day 7; versus solvent. The method, then:
Implantation of a polyurethane sponge subcutaneously in a mouse provides an inflammatory stimulus to angiogenesis and is a well established model for assessing the pro- and anti-angiogenic effects of compounds. To test the effects of dimethyl oxalylglycine in vivo, sterile 8 mm sponge discs were inserted under the dorsal skin of C57 Black mice on Day 0. Test solutions were injected through the skin into the sponges of mice once per day on days 1, 2, 4 and 5. Individual mice received 100 microliters aliquots of either sterile dimethyloxalylglycine (0.1 mM, 1 mM or 10 mM) or carrier solution. Animals were sacrificed on day 7 and the sponges removed. The sponges were fixed in 3.7% formaldehyde, paraffin embedded and stained immunohistochemically for von Willebrand factor to identify blood vessels.
Artificial activation of the HIF signalling pathway using the methods of the invention should induce angiogenesis and will therefore be of potential therapeutic use in ischaemic disease. We tested the effect of polypeptide induced HIF stabilisation in an in vitro angiogenesis assay, co-culturing human microvascular endothelial cells (HMEC-1) with empty vector transfected or doxCODD cells. In view of the possibility of sustained activation inducing a negative feedback loop we opted to test the effects of intermittent induction. […]

The subject of assay [2] is HIF hydroxylase (HPH activity). Put plainly: HIF hydroxylase (HPH) inhibition, statements of the description. In kind it is biochemical.
The next assay has as its system HIF. The assay can be described thus: Induction of HIF in tissue culture by esterified equivalents. In kind it is cell-based. The settings on record: In-vivo esterified equivalent.

Entries after “also recorded” stand apart in the source; their conditions may differ.

On to `COC(=O)CNC(=O)C(=O)OC` [dimethyloxalylglycine], for which, in the assay with Hep3B and U2OS cells, the “CA-9 expression (immunoblot)” value is listed as “Clear upregulation” and the “HIF-1α level (immunoblot)” value is given as “increase intracellular levels of HIF-1; also recorded: Clear upregulation”. In addition, the “HIF-1α level (immunoblot)” value in the assay with Hep3B and U2OS cells (listed as dimethyl-oxalylgylcine) is on record as “strongly induced”. Further, in assay [1], the “blood vessels in sponges (von Willebrand factor)” value is recorded as “Considerably more blood vessels”. For the same molecule, the “inhibition of HIF hydroxylase / HPH” value in assay [2] was “act as inhibitors”. For the same molecule, in the assay on HIF, the “Induction of HIF in tissue culture” value is given as “Yes”.
